The record followed here is patent US12023360B2, “Composition and methods of screening” (OPTIBIOTIX LIMITED, priority 2013, dated 2024).

Type in all cases: cell-based
One test concerns Bacteroides. The test is described as follows: Anaerobic culture utilisation, FISH enumeration at 24 h: Bacteroides. Particulars: inoculum 7.98. The protocol: (§1) In these experiments, anaerobic cultures were tested to evaluate the in vitro utilisation of a novel Lactobacillus reuteri galactooligosaccharide by monitoring the populations of gut bacterial groups at 24 hours using fluorescent in situ hybridisation, and short-chain fatty acid (SCFA). Fructooligosaccharides (FOS), melibiose and raffinose were used as reference carbohydrates.

The next test has as its system Bifidobacteria. The test is described as follows: Anaerobic culture utilisation, FISH enumeration at 24 h: Bifidobacteria. Particulars: inoculum 6.85. On the procedure:
as §1

Another test has as its system Clostridia. The test is described as follows: Anaerobic culture utilisation, FISH enumeration at 24 h: Clostridia. Particulars: inoculum 7.55. The protocol: as §1
For the next test, the system named is E. coli. The test is described as follows: Anaerobic culture utilisation, FISH enumeration at 24 h: E. coli. Particulars: inoculum 8.14. On the procedure:
as §1

In a further test the test system is Lactobacilli. Nature of the test: Anaerobic culture utilisation, FISH enumeration at 24 h: Lactobacilli. Particulars: inoculum 7.15. The protocol:
as §1

A further test has as its system Eubacteria. Nature of the test: Anaerobic culture utilisation, FISH enumeration at 24 h: Eubacteria. Particulars: inoculum 8.06. The protocol:
as §1

As for `OC[C@H]1O[C@H](OCC2O[C@@H](O)[C@H](O)[C@@H](O)[C@@H]2O)[C@H](O)[C@@H](O)[C@H]1O` (stereo partly shown) [Melibiose, melibiose], the “Bacteroides, 24” value in the test on Bacteroides is on record as 7.9. In addition, in the test with Bifidobacteria, the “Bifidobacteria, 24” value was found to be 7.33. In the test with Clostridia, the “Clostridia, 24” value turned out to be 7.65. In the test with E. coli, the “E. coli, 24” value was 7.66. For the same compound, the “Lactobacilli, 24” value in the test on Lactobacilli was determined as 7.43. Moreover, the “Eubacteria, 24” value in the test on Eubacteria was found to be 7.84.
With `OC[C@H]1O[C@H](OC[C@H]2O[C@H](O[C@]3(CO)O[C@H](CO)[C@@H](O)[C@@H]3O)[C@H](O)[C@@H](O)[C@@H]2O)[C@H](O)[C@@H](O)[C@H]1O` [Raffinose, raffinose], in the test on Clostridia, the “Clostridia, 24” value is reported as 7.81.
